Laboratory results: US9469645B2, “Compounds and compositions for the treatment of parasitic diseases” (Novartis AG, priority 2009, dated 2016)

How the values were obtained:
[1] = test system: 3D7 P. falciparum strain; experiment: parasite proliferation assay in infected red blood cells (SYBR Green I); type: cell-based, Plasmodium falciparum; settings: Plasmodium falciparum, 3D7, Erythrocyte, 3D7 strain; read-out: EC50 3D7 strain
Summary of the method: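 P. falciparum 3D7 grown in O+ human erythrocytes to 3–8% parasitemia and exposed to compounds. Proliferation read as the increase in parasite DNA. Detection used SYBR Green I in saponin/triton-X/EDTA lysis buffer, with overnight lysis at room temperature.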

[2] = test system: W2 strain; experiment: parasite proliferation assay in infected red blood cells (SYBR Green I), W2 strain; type: cell-based, Plasmodium falciparum; settings: Plasmodium falciparum, Erythrocyte
Excerpt: Compounds of the invention can be assayed to measure their capacity to inhibit proliferation of parasitemia in infected red blood cells. The proliferation is quantified by the addition of SYBR Green I (INVITROGEN)® dye which has a high affinity for double stranded DNA.

SMILES | EC50 [1] [nM] | EC50 [2] [nM]
CN1CCN(c2ccc(Nc3c(-c4ccc(F)cc4)nc4n3CCNC4(C)C)cc2)CC1 [Compound 572] | 11200 | 8730
CNC(=O)c1cccc(Nc2c(-c3ccc(F)cc3)nc3n2CCN(C(=O)CN)C3(C)C)c1 [Compound 553] | 2370 | 4660
CC(C)[C@H]1c2nc(-c3ccc(F)cc3)c(Nc3ccc(Cl)c(F)c3)n2CCN1C(=O)CN [Compound 595] | 340 | 485
N[C@H](C(=O)N1CCn2c(nc(-c3ccc(F)cc3)c2Nc2ccc(F)c(F)c2)C1)C1CC1 [Compound 437] | 20 | 28
CC[C@H](C)[C@H](N)C(=O)N1CCn2c(nc(-c3ccc(F)cc3)c2Nc2ccc(F)c(F)c2)C1 [Compound 442] | 20 | 33
Cc1ccc(C[C@H](N)C(=O)N2CCn3c(nc(-c4ccc(F)cc4)c3Nc3ccc(F)c(F)c3)C2)cc1 [Compound 432] | 60 | 67
N[C@H](C(=O)N1CCn2c(nc(-c3ccc(F)cc3)c2Nc2ccc(F)c(F)c2)C1)c1ccc(F)cc1 [Compound 436] | 30 | 52
Cc1ccc(Nc2c(-c3ccc(F)c(Cl)c3)nc3n2CCN(C(=O)CN)C3)cc1 [Compound 519] | 840 | 590
CC(C)C[C@H](N)C(=O)N1CCn2c(nc(-c3ccc(F)cc3)c2Nc2ccc(Cl)cc2)C1 [Compound 453] | 20 | 21
N[C@@H](Cc1cscn1)C(=O)N1CCn2c(nc(-c3ccc(F)cc3)c2Nc2ccc(F)c(F)c2)C1 [Compound 431] | 70 | 80
Cc1ccc(Nc2c(-c3ccc(F)cc3)nc3n2CCN(C(=O)CN)C3(C)C)cc1C#N [Compound 525] | 10 | 13
CC1(C)c2nc(-c3ccc(F)cc3)c(Nc3ccc(Cl)cc3)n2CCN1C(=O)CN [Compound 417, 2-amino-1-(3-(4-chlorophenylamino)-2-(4-fluorophenyl)-8,8-dimethyl-5,6-dihydroimidazo[1,2-a]pyrazin-7(8H)-yl)ethanone] | 10 | 6
CC(C)(C)[C@H](N)C(=O)N1CCn2c(nc(-c3ccc(F)cc3)c2Nc2ccc(Cl)cc2)C1 [Compound 463] | 40 | 24
O=C([C@@H]1CCN1)N1CCn2c(nc(-c3ccc(F)cc3)c2Nc2ccc(Cl)cc2)C1 [Compound 462] | 50 | 37
N[C@@H](CC1CC1)C(=O)N1CCn2c(nc(-c3ccc(F)cc3)c2Nc2ccc(F)c(F)c2)C1 [Compound 438] | 20 | 23
Cc1ccc(Nc2c(-c3ccc(F)cc3)nc3n2CCN(C(=O)[C@@H](C)NCc2ccccc2)C3)cc1 [Compound 402] | 120 | 122
CC(C)[C@H](N)C(=O)N1CCn2c(nc(-c3ccc(F)cc3)c2Nc2ccc(F)cc2)C1 [Compound 464] | 30 | 24
CC[C@H](C)[C@H](N)C(=O)N1CCn2c(nc(-c3ccc(F)cc3)c2Nc2ccc(F)cc2)C1 [Compound 469] | 20 | 16
CC1(C)NCCn2c1nc(-c1ccc(F)cc1)c2Nc1ccc(F)c(C(=O)O)c1 [Compound 523] | 13100 | 11600
CC1(C)NC(=O)Cn2c1nc(-c1ccc(F)cc1)c2Nc1ccc(Cl)cc1 [Compound 508] | 130 | 126
CC(C)[C@@H](O)C(=O)N1CCn2c(nc(-c3ccc(F)cc3)c2Nc2ccc(F)cc2)C1 [Compound 471] | 30 | 30
Cc1ccc(Nc2c(-c3ccc(F)cc3)nc3n2CC(C)(C)N(C(=O)CN)C3)cc1 [Compound 573] | 40 | 55
Cc1ccnc(Nc2c(-c3ccc(F)cc3)nc3n2CC(=O)NC3(C)C)c1 [Compound 547] | 1820 | 4660
N[C@@H](CC1CC1)C(=O)N1CCn2c(nc(-c3ccc(F)cc3)c2Nc2ccc(Cl)cc2)C1 [Compound 451] | 30 | 19
